# Laboratory results taken from patent publication US20090137577A1, “HETEROCYCLIC COMPOUNDS” (Pfizer Inc., priority 2007, published 2009).
# Molecular target: T1, mGluR2 receptor (metabotropic glutamate receptor 2) (Homo sapiens, UniProt Q14416)
# T1 construct: expressed in transfected cells
# Assay: mGluR2 potentiator screen (FLIPR, EC10-EC20 glutamate challenge);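 also: HEK cells stably expressing human mGluR2 with GL15 G protein, Fluo-4 calcium fluorescence read on FLIPR, compounds added before an EC10-EC20 glutamate challenge to detect potentiation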
# Type: cell-based
# Settings: geometric mean; read-out: mGluR 2 EC50 (geometric mean)
# T1 sequence (Q14416 19-872, species assumed): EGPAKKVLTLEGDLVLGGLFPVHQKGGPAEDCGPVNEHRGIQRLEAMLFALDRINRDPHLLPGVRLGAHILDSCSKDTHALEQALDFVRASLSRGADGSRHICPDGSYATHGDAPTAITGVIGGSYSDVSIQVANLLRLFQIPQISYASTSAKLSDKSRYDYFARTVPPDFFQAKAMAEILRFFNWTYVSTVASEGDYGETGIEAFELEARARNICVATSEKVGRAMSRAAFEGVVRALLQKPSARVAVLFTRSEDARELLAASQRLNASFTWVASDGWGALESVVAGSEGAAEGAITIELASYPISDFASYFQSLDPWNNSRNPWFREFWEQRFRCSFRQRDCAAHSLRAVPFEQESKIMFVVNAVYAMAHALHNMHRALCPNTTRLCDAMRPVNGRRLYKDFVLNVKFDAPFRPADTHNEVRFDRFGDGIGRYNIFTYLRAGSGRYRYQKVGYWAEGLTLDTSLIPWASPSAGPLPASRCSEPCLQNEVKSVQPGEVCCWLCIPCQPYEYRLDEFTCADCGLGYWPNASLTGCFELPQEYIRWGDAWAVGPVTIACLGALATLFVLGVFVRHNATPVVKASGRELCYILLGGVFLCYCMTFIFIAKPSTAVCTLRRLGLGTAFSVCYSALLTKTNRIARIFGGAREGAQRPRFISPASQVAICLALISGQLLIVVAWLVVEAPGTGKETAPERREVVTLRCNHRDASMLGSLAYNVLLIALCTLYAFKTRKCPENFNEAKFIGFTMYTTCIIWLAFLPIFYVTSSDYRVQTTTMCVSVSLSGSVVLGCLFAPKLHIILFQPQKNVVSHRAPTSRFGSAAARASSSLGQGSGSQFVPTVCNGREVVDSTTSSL
row,EC50,SMILES
1,935 nM,CC1(C)COC(=O)N(Cc2ccc(OCC3CCC3)cc2)C1 [Example 15]
2,153 nM,O=C1OC(c2ccccc2)CN1Cc1ccc(OCc2ccccc2)cc1 (stereo not shown) [Example 8]
3,418 nM,"C[C@@H]1CN(Cc2ccc(OCCC3CCCCC3)c(F)c2)C(=O)O1 [Example 241, (5R)-3-[4-(2-cyclohexylethoxy)-3-fluorobenzyl]-5-methyl-1,3-oxazolidin-2-one]"
4,188 nM,CC1CN(Cc2ccc(OCCc3cccc(F)c3)cc2)C(=O)O1 (stereo not shown) [Example 101]
5,20.1 nM,C[C@@H]1CN(Cc2ccc(-c3ccc(C(F)(F)F)cc3Cl)cc2)C(=O)O1 [Example 272]
6,1830 nM,CCOC(=O)c1ccccc1-c1ccc(CN2C[C@@H](C)OC2=O)cc1 [Example 197]
7,< 13.4 nM,CCc1ccccc1-c1ccc(CN2C[C@@H](C)OC2=O)cc1 [Example 167]
8,< 16.2 nM,COc1ccc(C(C)C)cc1-c1ccc(CN2C[C@@H](C)OC2=O)cc1 [Example 156]
9,227 nM,COc1cccc(OC)c1-c1ccc(CN2C[C@@H](C)OC2=O)cc1 [Example 161]
10,987 nM,C[C@H]1[C@@H](c2ccccc2)OC(=O)N1Cc1ccc(OCCC2CCCCC2)cc1 [Example 30]
11,282 nM,O=C1OCCCN1Cc1ccc(OCCC2CCCCC2)cc1 [Example 34]
12,120 nM,Cc1nc(-c2ccccc2)ncc1COc1ccc(CN2CC(C)OC2=O)cc1 (stereo not shown) [Example 133]
13,463 nM,"C[C@@H]1CN(Cc2ccc(-c3ccc(OC(F)(F)F)cc3)nc2)C(=O)O1 [Example 255, (5R)-5-methyl-3-({6-[4-(trifluoromethoxy)phenyl]pyridin-3-yl}methyl)-1,3-oxazolidin-2-one]"
14,934 nM,CC1CN(Cc2ccc(OCCCc3ccncc3)cc2)C(=O)O1 (stereo not shown) [Example 116]
15,788 nM,C[C@@H]1CN(Cc2ccc(-c3ccc(C(F)(F)F)cc3C(F)(F)F)nc2)C(=O)O1 [Example 276]
16,1760 nM,C[C@H]1[C@@H](c2ccccc2)OC(=O)N1Cc1ccc(OCc2ccccn2)cc1 [Example 25]
17,138 nM,CC1CN(Cc2ccc(OCc3ccccc3F)cc2)C(=O)O1 (stereo not shown) [Example 112]
18,32.5 nM,"C[C@@H]1CN(Cc2ccc(OCC3CCCCC3)c(Cl)c2)C(=O)O1 [Example 286, (5R)-3-[3-chloro-4-(cyclohexylmethoxy)benzyl]-5-methyl-1,3-oxazolidin-2-one]"
19,356 nM,C[C@H]1[C@@H](c2ccccc2)OC(=O)N1Cc1ccc(OC2CCCCC2)cc1 [Example 56]
20,135 nM,O=C1OC(c2ccccc2)CN1Cc1ccc(OCC2CCC2)cc1 (stereo not shown) [Example 9]

row,EC50,SMILES
1,1870 nM,"Cc1cc(CN2CC(c3cccnc3)OC2=O)ccc1OCC1CCCCC1 (stereo not shown) [Example 250, 3-[4-(Cyclohexylmethoxy)-3-methylbenzyl]-5-pyridin-3-yl-1,3-oxazolidin-2-one]"
2,677 nM,CC(Oc1ccc(CN2CCOC2=O)cc1)C1CCCCC1 (stereo not shown) [Example 42]
3,220 nM,O=C1OC(c2ccccc2)CN1Cc1ccc(OCC2CCCCC2)cc1 (stereo not shown) [Example 7]
4,325 nM,CC(Oc1ccc(CN2CCN(CCC(F)(F)F)CC2=O)cc1)C1CCCCC1 (stereo not shown) [Example 222]
5,46 nM,CC1CN(Cc2ccc(OCCCOc3ccc(F)cc3)cc2)C(=O)O1 (stereo not shown) [Example 152]
6,60.2 nM,CC(=O)c1ccc(-c2ccc(CN3C[C@@H](C)OC3=O)cc2)cc1 [Example 171]
7,884 nM,CC(Oc1ccc(CN2C(=O)OC[C@@H]3CCCC[C@@H]32)cc1)c1ccccc1 (stereo partly shown) [Example 35]
8,1340 nM,CC[C@](COc1ccc(CN2CC(C)OC2=O)cc1)(c1ccccc1)N(C)C (stereo partly shown) [Example 145]
9,273 nM,Cc1oc(-c2ccccc2)nc1CCOc1ccc(CN2CC(C)OC2=O)cc1 (stereo not shown) [Example 107]
10,7.07 nM,COc1ccc(CCCOc2ccc(CN3CC(C)OC3=O)cc2)cc1 (stereo not shown) [Example 98]
11,542 nM,CC(C)COc1ccc(CN2C(=O)O[C@H](c3ccccc3)[C@@H]2C)cc1 [Example 26]
12,336 nM,CC1(C)COC(=O)N(Cc2ccc(OC3CCCCC3)cc2)C1 [Example 43]
13,327 nM,C[C@@H]1CN(Cc2ccc(-c3cnc4ccccc4c3)c(F)c2)C(=O)O1 [Example 294]
14,416 nM,"C[C@@H]1CN(Cc2ccc(COc3ccc(F)cc3F)cc2)C(=O)O1 [Example 305, (5R)-3-{4-[(2,4-Difluorophenoxy)methyl]benzyl}-5-methyl-1,3-oxazolidin-2-one]"
15,< 13.4 nM,CC[C@H](Oc1ccc(CN2CC(C)OC2=O)cc1)c1ccccc1 (stereo partly shown) [Example 148]
16,827 nM,CC1CN(Cc2ccc(OCc3ccc(C#N)cc3)cc2)C(=O)O1 (stereo not shown) [Example 124]
17,48.3 nM,CC1CN(Cc2ccc(OC[C@@H](C)c3ccccc3)cc2)C(=O)O1 (stereo partly shown) [Example 111]
18,801 nM,CC(C)CCN1CCN(Cc2ccc(OC(C)C3CCCCC3)cc2)C(=O)C1 (stereo not shown) [Example 220]
19,191 nM,CC(C)CN1CCN(Cc2ccc(OC(C)C3CCCCC3)cc2)C(=O)C1 (stereo not shown) [Example 200]
20,263 nM,CC(Oc1ccc(CN2C(=O)O[C@H](c3ccccc3)[C@@H]2C)cc1)c1ccccc1 (stereo partly shown) [Example 50]

row,EC50,SMILES
1,49 nM,Cc1cc(Cl)ccc1-c1ccc(CN2C[C@@H](C)OC2=O)cc1 [Example 236]
2,89 nM,Cc1ccccc1COc1ccc(CN2C[C@@H](C)OC2=O)cc1 [Example 186]
3,53.1 nM,CC(C)Oc1ccc(-c2ccc(CN3C[C@@H](C)OC3=O)cc2)cc1F [Example 277]
4,638 nM,CC1CCCC1N1CCN(Cc2ccc(OC(C)C3CCCCC3)cc2)C(=O)C1 (stereo not shown) [Example 225]
5,363 nM,COc1ccc(-c2ccc(CN3C[C@@H](C)OC3=O)cn2)c(F)c1F [Example 262]
6,< 17.2 nM,COc1ccc(-c2ccc(CN3C[C@@H](C)OC3=O)cc2)c(F)c1F [Example 242]
7,1100 nM,C[C@@H]1CN(Cc2ccc(-c3ccc(C(F)(F)F)cc3)nc2)C(=O)O1 [Example 265]
8,211 nM,C[C@@H]1CN(Cc2ccc(-c3c(F)cccc3F)cc2)C(=O)O1 [Example 247]
9,45.5 nM,"Cc1cc(CN2C[C@@H](C)OC2=O)ccc1Oc1ncc(Cl)cc1Cl [Example 296, (5R)-3-{4-[(3,5-Dichloropyridin-2-yl)oxy]-3-methylbenzyl}-5-methyl-1,3-oxazolidin-2-one]"
10,55.9 nM,C[C@@H]1CN(Cc2ccc(-c3cccc(F)c3Cl)cc2F)C(=O)O1 [Example 251]
11,561 nM,C[C@@H]1CN(Cc2ccc(-c3ccc4c(c3)CCO4)nc2)C(=O)O1 [Example 264]
12,187 nM,CC1CN(Cc2ccc(OCCC3CC3)cc2)C(=O)O1 (stereo not shown) [Example 93]
13,1240 nM,C[C@@H]1CN(Cc2ccc(-c3ccc(N4CCOCC4)nc3)cc2)C(=O)O1 [Example 154]
14,196 nM,"C[C@@H]1CN(Cc2ccc(OCC3CCCCC3)c(F)c2)C(=O)O1 [Example 227, (5R)-3-[4-(cyclohexylmethoxy)-3-fluorobenzyl]-5-methyl-1,3-oxazolidin-2-one]"
15,581 nM,"CCN(C)CC1CN(Cc2ccc(-c3ccc(F)cc3F)cc2)C(=O)O1 (stereo not shown) [Example 304, 3-[(2′,4′-difluorobiphenyl-4-yl)methyl]-5-{[ethyl(methyl)amino]methyl}-1,3-oxazolidin-2-one]"
16,45.6 nM,Cc1ccc(Cl)cc1-c1ccc(CN2C[C@@H](C)OC2=O)cc1 [Example 233]
17,155 nM,O=C1OC(c2ccccc2)CN1Cc1ccc(OC2CCCCC2)cc1 (stereo not shown) [Example 40]
18,92.1 nM,COc1ccc(F)c(COc2ccc(CN3CC(C)OC3=O)cc2)c1 (stereo not shown) [Example 151]
